The results in this text go back to patent US20250170126A1 (MITSUBISHI TANABE PHARMA CORPORATION, priority 2022, published 2025).

Structures can show the parent of a compound that is named as a salt.

Sequence of Human B0AT1 (Q695T7 whole entry): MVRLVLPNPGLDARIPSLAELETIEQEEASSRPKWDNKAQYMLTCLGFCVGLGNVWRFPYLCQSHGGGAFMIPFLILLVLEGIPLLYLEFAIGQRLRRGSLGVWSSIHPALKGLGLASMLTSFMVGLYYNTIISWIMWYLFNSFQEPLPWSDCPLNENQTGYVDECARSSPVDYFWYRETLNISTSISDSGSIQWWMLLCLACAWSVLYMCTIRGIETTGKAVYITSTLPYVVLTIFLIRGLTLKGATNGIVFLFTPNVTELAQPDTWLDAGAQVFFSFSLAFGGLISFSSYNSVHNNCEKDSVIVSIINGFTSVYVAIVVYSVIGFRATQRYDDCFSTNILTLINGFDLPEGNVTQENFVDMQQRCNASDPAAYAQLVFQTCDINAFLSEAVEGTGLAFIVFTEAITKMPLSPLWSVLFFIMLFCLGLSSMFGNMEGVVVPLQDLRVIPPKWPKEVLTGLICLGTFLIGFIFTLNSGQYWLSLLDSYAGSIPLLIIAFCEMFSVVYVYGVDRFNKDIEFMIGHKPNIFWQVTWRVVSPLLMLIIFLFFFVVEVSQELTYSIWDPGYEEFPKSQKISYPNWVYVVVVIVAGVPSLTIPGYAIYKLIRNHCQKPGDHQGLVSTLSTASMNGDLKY

The experiment addresses Human B0AT1 (Homo sapiens (Human), UniProt Q695T7). Briefly: hB0AT1 inhibitory test (phenylalanine uptake). Format: cell-based. As to conditions: Human B0AT1 stable expression CHO cells; [3H]-L-phenylalanine uptake, phenylalanine 0.25 mM. The protocol:
A test compound dissolved in dimethyl sulfoxide (DMSO) was added to a 96 well plate for solid phase radioactivity measurement containing a scintillator at the bottom of the well (final concentration of DMSO 0.5%). DMSO alone as a control and DMSO containing N-(4-bromophenyl)-3,5-dichloro-2-hydroxybenzamide (final concentration […]) for the is measurement of B0AT1 non-specific uptake were similarly added at 0.5 μL per well. Human B0AT1 stable expression CHO cells suspended in a buffer (buffer containing 96 mM sodium chloride, 2 mM potassium chloride, 1.8 mM calcium chloride, 1 mM magnesium chloride, 0.01% bovine serum albumin, and 10 mM 2-[4-(2-hydroxyethyl)-1-piperazinyl]ethanesulfonic acid) were added by 90 μL to 75000 cells/well. After standing at ordinary temperature for 30 min or longer, the cells were subjected to a phenylalanine uptake experiment. A buffer containing L-phenylalanine and [3,4,5-3H]-L-phenylalanine was added by 10 μL per well (final concentration of phenylalanine 0.25 mM), and the radioactivity of the plate bottom surface at ordinary temperature was measured with a scintillation counter over time, and the radioactivity value after 100 to 200 min was analyzed. A value obtained by subtracting the B0AT1 non-specific uptake from the control uptake was taken as 100%, and the concentration necessary for each test compound to achieve 50% inhibition (IC50 value) was determined by nonlinear regression using a logistic model.
In the case of `O=C(/C=C/c1ccc(C(F)(F)F)cc1)NCC(=O)N1CCc2[nH]ncc2C1` [I-76], the IC50 is 0.053 µM.
To `Cn1ncc2c1CCN(C(=O)CNC(=O)/C=C/c1ccc(C(F)(F)F)cc1)C2` [I-77] belongs 0.07 µM; to `O=C(/C=C/c1ccc(C(F)(F)F)cc1)NCC(=O)N1CCc2ncncc2C1` [I-78], 0.056 µM.
To `Cn1nc2n(c1=O)CCN(C(=O)CNC(=O)/C=C/c1ccc(C(F)(F)F)cc1)C2` [I-79] belongs 0.051 µM.
The compound `O=C(/C=C/c1ccc(C(F)(F)F)cc1)NCC(=O)N1CCn2nncc2C1` [I-80] gave an IC50 of 0.042 µM.
The result for `O=C(/C=C/c1ccc(C(F)(F)F)cc1)NCC(=O)N1CCc2n[nH]c(=O)cc2C1` [I-81] reads 0.053 µM; that for `Cn1cc2c(n1)CCN(C(=O)CNC(=O)/C=C/c1ccc(C(F)(F)F)cc1)C2` [I-82], 0.064 µM.
The compound `COCC(C)N(Cc1ccccn1)C(=O)CNC(=O)/C=C/c1ccc(C(F)(F)F)cc1` (stereo not drawn) [I-83] came in with an IC50 of 0.078 µM.
Consider `O=C(/C=C/c1ccc(C(F)(F)F)cc1)NCC(=O)N1CCc2cncnc2C1` [I-84], for which half-maximal inhibition (IC50) was put at 0.054 µM. The IC50 values of the last two compounds are within 1.5-fold of each other.
To `O=C(/C=C/c1ccc(C(F)(F)F)cc1)NCC(=O)N(CCO)Cc1ccccn1` [I-85] belongs 0.186 µM.
`O=C(/C=C/c1ccc(C(F)(F)F)cc1)NCC(=O)N1CCCn2nccc21` [I-86]: inhibition was half-maximal at 0.023 µM (IC50).
To `O=C(/C=C/c1ccc(C(F)(F)F)cc1)NCC(=O)N1CCCc2ccccc21` [I-87] belongs 0.124 µM; to `O=C(/C=C/c1ccc(OC(F)F)cc1)NCC(=O)N1CCn2nccc2C1` [I-89], 0.094 µM.
With `COc1nccc2c1CCN(C(=O)CNC(=O)/C=C/c1ccc(C(F)(F)F)cc1)C2` [I-90], half-maximal inhibition (IC50) required 0.023 µM.
Compound `COc1nccc2c1CN(C(=O)CNC(=O)/C=C/c1ccc(C(F)(F)F)cc1)CC2` [I-91] returned a 50% inhibitory concentration (IC50) of 0.036 µM.
For `COc1cc2c(cn1)CN(C(=O)CNC(=O)/C=C/c1ccc(C(F)(F)F)cc1)CC2` [I-92], the 50% inhibitory concentration (IC50) worked out at 0.02 µM.
Compound `O=C(/C=C/c1ccc(C(F)(F)F)cc1)NCC(=O)N1CCn2nccc2C1` [I-93] showed an IC50 of 0.031 µM.
With `COc1ccc2c(n1)CN(C(=O)CNC(=O)/C=C/c1ccc(C(F)(F)F)cc1)CC2` [I-94], the IC50 came to 0.04 µM. The IC50 values of the last two compounds are within 1.5-fold of each other.
`O=C(/C=C/c1ccc(C(F)(F)F)cc1)NCC(=O)N1CCn2ncc(Br)c2C1` [I-96] returned an IC50 of 0.01 µM.
The result for `CC1Cn2ncnc2CN1C(=O)CNC(=O)/C=C/c1ccc(C(F)(F)F)cc1` (stereo not drawn) [I-97] reads 0.397 µM.
To `O=C(/C=C/c1ccc(C(F)(F)F)cc1)NCC(=O)N1CCc2[nH]nnc2C1` [I-98] belongs 0.078 µM; to `O=C(/C=C/c1ccc(C(F)(F)F)cc1)NCC(=O)N1CCc2nnccc2C1` [I-99], 0.064 µM.
As to `Cn1nnc2c1CCN(C(=O)CNC(=O)/C=C/c1ccc(C(F)(F)F)cc1)C2` [I-100], it took 0.079 µM to reach half-maximal inhibition (IC50). The IC50 values of the last two compounds are within 1.5-fold of each other.
To `CN1CCN(C(=O)CNC(=O)/C=C/c2ccc(-c3ccccc3)cc2)CC1` [I-103, (E)-N-[2-(4-methylpiperazin-1-yl)-2-oxoethyl]-3-(4-phenylphenyl) prop-2-enamide] belongs 0.031 µM; to `CN(C)C(=O)CNC(=O)/C=C/c1ccc(C(F)(F)F)cc1` [I-104], 2.03 µM; to `CC(C)c1ccc(/C=C/C(=O)NCC(=O)N2CCN(C)CC2)cc1` [I-106], 0.276 µM.
The result for `Cc1nc(-c2ccc(/C=C/C(=O)NCC(=O)N3CCN(C)CC3)cc2)no1` [I-107] reads 1.16 µM; that for `CCCOc1ccc(/C=C/C(=O)NCC(=O)N2CCN(C)CC2)cc1` [I-108], 0.104 µM; that for `CN1CCN(C(=O)CNC(=O)/C=C/c2ccc(OCC(F)(F)C(F)F)cc2)CC1` [I-109], 0.267 µM.
For the compound `CN1CCN(C(=O)CNC(=O)/C=C/c2ccc(C3CC3)cc2)CC1` [I-110], inhibition was half-maximal at 0.098 µM (IC50). Compared with the last compound, the IC50 is about 2.7-fold lower.
To `CN1CCN(C(=O)CNC(=O)/C=C/c2ccc(-c3cccnc3)cc2)CC1` [I-111] belongs 0.471 µM; to `CN1CCN(C(=O)CNC(=O)/C=C/c2ccc(OC(F)(F)F)cc2)CC1` [I-112], 0.056 µM; to `CCCCOc1ccc(/C=C/C(=O)NCC(=O)N2CCN(C)CC2)cc1` [I-113], 0.178 µM.
To `CN1CCN(C(=O)CNC(=O)/C=C/c2ccc(OCC3CC3)cc2)CC1` [I-114] belongs 0.925 µM; to `CN1CCN(C(=O)CNC(=O)/C=C/c2ccc(C3CCC3)cc2)CC1` [I-116], 0.039 µM; to `CCOc1ccc(/C=C/C(=O)NCC(=O)N2CCN(C)CC2)cc1` [I-117], 0.199 µM.
`CN1CCN(C(=O)CNC(=O)/C=C/c2ccc(OC(F)(F)F)cc2)CC1=O` [I-118] gave a concentration for half-maximal inhibition (IC50) of 0.137 µM. This IC50 and that of the compound before are within 1.5-fold of each other.
`CC1CN(C)CCN1C(=O)CNC(=O)/C=C/c1ccc(C(F)(F)F)cc1` (stereo not drawn) [I-119, (E)-N-[2-(2,4-dimethylpiperazin-1-yl)-2-oxoethyl]-3-[4-(trifluoromethyl)phenyl]prop-2-enamide]: the IC50 is 0.03 µM. This IC50 lies about 4.6-fold lower than the previous one.
The result for `Cc1nnc([C@H]2CN(C)CCN2C(=O)CNC(=O)/C=C/c2ccc(C(F)(F)F)cc2)o1` [I-121] reads 0.081 µM.
The result for `CN1[C@@H]2CC[C@H]1CN(C(=O)CNC(=O)/C=C/c1ccc(C(F)(F)F)cc1)C2` [I-122] reads 0.64 µM; that for `CN1CCN(C(=O)CNC(=O)/C=C/c2ccc(C(F)(F)F)cc2)[C@H](C(=O)O)C1` [I-123, (2S)-4-methyl-1-[2-[[(E)-3-[4-(trifluoromethyl)phenyl]prop-2-enoyl]amino]acetyl]piperazine-2-carboxylic acid], 0.175 µM; that for `O=C(/C=C/c1ccc(C(F)(F)F)cc1)NCC(=O)N1CC[C@H](C(=O)O)C1` [I-125, (3S)-1-[2-[[(E)-3-[4-(trifluoromethyl)phenyl]prop-2-enoyl]amino]acetyl]pyrrolidine-3-carboxylic acid], 1.62 µM.
To `CN1CCN(C(=O)CNC(=O)/C=C/c2ccc(-c3ccc(F)cc3)cc2)CC1` [I-126, (E)-3-[4-(4-fluorophenyl)phenyl]-N-[2-(4-methylpiperazin-1-yl)-2-oxoethyl]prop-2-enamide] belongs 0.038 µM.
Compound `CN1CCN(C(=O)CNC(=O)/C=C/c2ccc(-c3cc(F)c(F)c(F)c3)cc2)CC1` [I-127] came in with a half-inhibitory concentration (IC50) of 0.088 µM.
Compound `CN1CCN(C(=O)CNC(=O)/C=C/c2ccc(-c3ccc(C(F)(F)F)cc3)cc2)CC1` [I-128] registered an IC50 of 0.678 µM.
The result for `CC(C)(O)c1cc2n(n1)CCN(C(=O)CNC(=O)/C=C/c1ccc(C(F)(F)F)cc1)C2` [I-129, (E)-N-[2-[2-(1-hydroxy-1-methylethyl)-6,7-dihydro-4H-pyrazolo [1,5-a]pyrazin-5-yl]-2-oxoethyl]-3-[4-(trifluoromethyl)phenyl]prop-2-enamide] reads 0.066 µM; that for `CNC(=O)CC(COC)N(CCOC)C(=O)CNC(=O)/C=C/c1ccc(C(F)(F)F)cc1` (stereo not drawn) [I-130, 4-methoxy-3-[2-methoxyethyl-[2-[[(E)-3-[4-(trifluoromethyl)phenyl]prop-2-enoyl]amino]acetyl]amino]-N-methylbutanamide], 0.486 µM; that for `Cc1nnc([C@H]2CN(C(=O)CNC(=O)/C=C/c3ccc(C(F)(F)F)cc3)CCN2C)o1` [I-131, (E)-N-[2-[(3R)-4-methyl-3-(5-methyl-1,3,4-oxadiazol-2-yl)piperazin-1-yl]-2-oxoethyl]-3-[4-(trifluoromethyl)phenyl]prop-2-enamide], 1.93 µM.
To `O=C(/C=C/c1ccc(C(F)(F)F)cc1)NCC(=O)N1CCNCC1` [I-133, (E)-N-(2-oxo-2-piperazin-1-ylethyl)-3-[4-(trifluoromethyl)phenyl]prop-2-enamide hydrochloride] belongs 0.069 µM; to `CCNC(=O)N1CCN(C(=O)CNC(=O)/C=C/c2ccc(C(F)(F)F)cc2)CC1` [I-134, N-ethyl-4-[2-[[(E)-3-[4-(trifluoromethyl)phenyl]prop-2-enoyl]amino]acetyl]piperazine-1-carboxamide], 1.24 µM; to `CN1CCN(C(=O)CNC(=O)/C=C/c2ccc(C(F)(F)F)cc2)[C@@H](C(=O)N(C)C)C1` [I-138, (2R)-N,N,4-trimethyl-1-[2-[[(E)-3-[4-(trifluoromethyl)phenyl]prop-2-enoyl]amino]acetyl]piperazine-2-carboxamide], 0.406 µM.
Compound `CNC(=O)[C@H]1CN(C)CCN1C(=O)CNC(=O)/C=C/c1ccc(C(F)(F)F)cc1` [I-139, (2R)-N,4-dimethyl-1-[2-[[(E)-3-[4-(trifluoromethyl)phenyl]prop-2-enoyl]amino]acetyl]piperazine-2-carboxamide] registered an IC50 of 0.133 µM. Compared with the last compound, the IC50 is about 3.1-fold lower.
Compound `O=C(/C=C/c1ccc(C(F)(F)F)cc1)NCC(=O)N1CCn2cc(C(=O)O)nc2C1` [I-140, 7-[2-[[(E)-3-[4-(trifluoromethyl)phenyl]prop-2-enoyl]amino]acetyl]-6,8-dihydro-5H-imidazo[1,2-a]pyrazine-2-carboxylic acid] gave an IC50 of 0.328 µM.
The compound `O=C(/C=C/c1ccc(C(F)(F)F)cc1)NCC(=O)N1C[C@H](O)C[C@@H]1c1ccccc1` [I-141, (E)-N-[2-[(2R,4R)-4-hydroxy-2-phenylpyrrolidin-1-yl]-2-oxoethyl]-3-[4-(trifluoromethyl)phenyl]prop-2-enamide] had an IC50 of 1.72 µM.
